According to patent US20250333394A1, “Tiparp Inhibitor Compounds” (AbbVie Inc., priority 2024, published 2025):
Where two headings read alike, the source gives them in different places.

Tests used:
TIPARP GST-(TEV) = TIPARP GST-(TEV) (Homo sapiens (Human), UniProt Q7Z3E1); assay: TR-FRET binding assay, TIPARP; conditions: for IC50: TR-FRET, Probe 1, 2 hours incubation; for PARP1/TIPARP IC50 Ratio: ratio of PARP1 GST IC50 to TIPARP GST-(TEV) IC50
Text: The full-length cDNA encoding the human TIPARP (NP_001171647.1, UniProtKB-Q7Z3E1) of 657 amino acids was the template to generate the expression construct. […] The TIPARP fusion protein includes GST, glutathione S-transferase, a 26 kDa protein whose DNA sequence is frequently integrated into expression vectors for production of recombinant proteins. A […], was cloned into vector pFastBacTM 1 (Thermo Fisher Scientific) with an N-terminal GST tag followed by a TEV protease site to produce the TIPARP fusion protein, TIPARP GST-(TEV). TR-FRET assays were used to measure the binding of compounds to TIPARP and PARP1, and to characterize biochemical selectivity. Compound stock solutions (10 mM) were serially diluted in 3-fold increments in dimethyl sulfoxide (DMSO). Diluted compounds were dispensed (30 nL) into white ProxiPlate-384-well plates (PerkinElmer, Waltham, MA, USA) using an ECHO® 550 acoustic Labcyte dispenser (Beckman-Coulter Life Sciences, Indianapolis, IN, USA) to achieve a final starting concentration of 30 μM to 0.5 nM in the assay. This was followed by addition of 5 μL of 2× protein/probe mix (Table 2) made in assay buffer (Tris-HCl 50 mM pH 8.0; 5 mM MgCl2; 5 μM ZnCl2; 1 mM DTT (dithiothreitol); 0.15% BSA (bovine serum albumin) (w/v); and 0.01% TritonX-100 (w/v)) at final concentrations listed in Table 2. Subsequently, 5 μL of 2× antibody (Tb-labeled anti-GST antibody, Thermo Fisher Scientific, Waltham, MA, USA) in HEPES buffered saline was added to each well at a final concentration of 1 nM. The samples were then incubated for 2 hours under ambient conditions. Fluorescence was measured and TR-FR ET ratios were determined on an EnVision multimode plate reader (PerkinElmer) using a 520 nanometer (nm) excitation wavelength and collecting fluorescence emission at 495 nm. […] [table]

PARP1 GST = PARP1 GST (Homo sapiens (Human), UniProt P09874); assay: TR-FRET binding assay, PARP1; conditions: Probe 2, 2 hours incubation
Experimental: TR-FRET assays were used to measure the binding of compounds to TIPARP and PARP1, and to characterize biochemical selectivity. Compound stock solutions (10 mM) were serially diluted in 3-fold increments in dimethyl sulfoxide (DMSO). Diluted compounds were dispensed (30 nL) into white ProxiPlate-384-well plates (PerkinElmer, Waltham, MA, USA) using an ECHO® 550 acoustic Labcyte dispenser (Beckman-Coulter Life Sciences, Indianapolis, IN, USA) to achieve a final starting concentration of 30 μM to 0.5 nM in the assay. This was followed by addition of 5 μL of 2× protein/probe mix (Table 2) made in assay buffer (Tris-HCl 50 mM pH 8.0; 5 mM MgCl2; 5 μM ZnCl2; 1 mM DTT (dithiothreitol); 0.15% BSA (bovine serum albumin) (w/v); and 0.01% TritonX-100 (w/v)) at final concentrations listed in Table 2. Subsequently, 5 μL of 2× antibody (Tb-labeled anti-GST antibody, Thermo Fisher Scientific, Waltham, MA, USA) in HEPES buffered saline was added to each well at a final concentration of 1 nM. The samples were then incubated for 2 hours under ambient conditions. Fluorescence was measured and TR-FR ET ratios were determined on an EnVision multimode plate reader (PerkinElmer) using a 520 nanometer (nm) excitation wavelength and collecting fluorescence emission at 495 nm.

NCI-H1373 cells = assay: NCI-H1373 CellTiter-Glo cell assay for TIPARP inhibition; format: cell-based, human; conditions: 6 days, 100 nM 10-Cl-BBQ in medium, read-out: NCI-H1373 CTG EC50
Experimental: The NCI-H1373 CellTiter-Glo® assay was used to determine cell numbers after TIPARP inhibition-induced cell cycle arrest, and enabled screening of compounds for cellular TIPARP inhibition potency.
Compound stock solutions (10 mM) were serially diluted in 3-fold increments in dimethyl sulfoxide. Sample aliquots (120 nL) were dispensed into Corning® 384-well Flat Clear Bottom White Polystyrene TC-treated Microplates (Corning Life Sciences, Corning, NY, USA) using an ECHO® 550 acoustic Labcyte dispenser (Beckman-Coulter Life Sciences, Indianapolis, IN, USA) to achieve final concentrations between 30 μM and 0.5 nM in the assay. This was followed by the addition of 40 μL of 1000 NCI-H1373 cells (ATCC®, Manassas, VA, USA) in complete growth medium RPMI 1640 growth medium (Thermo Fisher Scientific, Waltham, MA, USA) supplemented with 20 mg/L L-glutamate, 25 mM HEPES (4-(2-hydroxyethyl)-1-piperazineethanesulfonic acid), 10% (v/v) heat inactivated FBS (fetal bovine serum), 1% (w/v) penicillin-streptomycin, and 100 nM 10-Cl-BBQ (10-chloro-7H-benzimidazo[2,1-a]benz[de]isoquinolin-7-one, (Tocris, Minneapolis, MN, USA). Duplicate cell plates with 40 μL cells/well along with various concentrations of compounds were kept in Nunc™ Square BioAssay Dishes (Thermo Fisher Scientific) at 98% relative humidity in a 5% C02 incubator at 37° C. for 6 days. On day 7, plates were moved to ambient lab conditions for 10 minutes until the temperature equilibrated. Following equilibration, CellTiter-Glo® Luminescent Cell Viability Assay reagent (Promega™, Madison, WI, USA) was added (15 μL) to each well of the plates. After a 20 minutes incubation, luminescence was detected using a ViewLux™ microplate imager (PerkinElmer, Waltham, MA, USA). Data analysis was performed using GraphPad Prism (Dotmatics, Boston, MA, USA).

DLD-1 parent cells = assay: CellTiter-Glo DLD-1 parent cell assay; format: cell-based; conditions: 6 days, read-out: DLD-1 CTG EC50
Text: (§1) The DLD-1 BRCA2 (−/−) CellTiter-Glo® assay measured the synthetic lethality of PARP1/2 inhibitors and was used as a surrogate to allow measurement of activity of both PARP1 and PARP2 in cells. If PARP1 and PARP2 are inhibited and are trapped onto chromatin during DNA replication, there is replication fork stalling and accumulation of double strand breaks. In BR CA wild-type cells, the resulting double strand DNA breaks are repaired via homologous recombination. In cells with mutation of BRCA1 or BRCA2, homologous recombination repair of DNA double strand breaks is defective, and cell death occurs after PARP1/2 inhibitor treatment (Lord C J, Ashworth A. PARP inhibitors: synthetic lethality in the clinic. Science. 2017 Mar. 17; 355(6330):1152-1158). Testing compounds in viability assays with the DLD-1-BR CA 2 (−/−) and DLD-1 parent cell enabled assessment on PARP1/2-dependent (cytotoxicity in the BRCA2 (−/−) cells only) vs. non-selective cytotoxicity in both cell lines.
(§2) Compound stock solutions (10 mM) were serially diluted in 3-fold increments in dimethyl sulfoxide (DMSO). Sample aliquots (120 nL) were dispensed into Corning® 384-well Flat Clear Bottom White Polystyrene TC-treated Microplates (Corning Life Sciences, Corning, NY, USA) using an ECHO® 550 acoustic Labcyte dispenser (Beckman-Coulter Life Sciences, Indianapolis, IN, USA) to achieve concentrations between 30 μM and 0.5 nM in the assay. In the assay, 40 μL of 500 DLD-1 parent cells (HORIZON® Therapeutics, Deerfield, IL, USA) or 40 μL of 1200 DLD-1-BRCA2 (−/−) cells (HORIZON Therapeutics) in complete growth medium containing RPMI 1640 growth medium (ThermoFisher Scientific, Waltham, MA, USA) supplemented with 20 mg/L L-glutamate, 25 mM HEPES (4-(2-hydroxyethyl)-1-piperazineethanesulfonic acid), 10% (v/v) heat inactivated FBS (fetal bovine serum), and 1% (w/v) Penicillin-Streptomycin were added.
(§3) Duplicate cell plates with 40 μL cells/well along with various concentrations of compounds were kept in Nunc™ Square BioAssay Dishes (Thermo Fisher Scientific) at 98% relative humidity in a 5% CO2 incubator at 37° C. for 6 days. On day 7, plates were moved to ambient lab conditions for 10 minutes until the temperature equilibrated. Following equilibration, CellTiter-Glo® Luminescent Cell Viability Assay reagent (Promega™, Madison, WI, USA) was added (15 μL) to each well of the plates. After a 20 minutes incubation, luminescence was detected using a ViewLux™ microplate imager (PerkinElmer, Waltham, MA, USA). Data analysis was performed using GraphPad Prism (Dotmatics, Boston, MA, USA).

DLD-1 BRCA2 (−/−) cells = assay: CellTiter-Glo DLD-1 BRCA2 (−/−) cell assay for PARP1/2 inhibition; format: cell-based; conditions: 6 days, read-out: DLD-1 BRCA2 (−/−) CTG EC50
Text: as §1, §2, §3

Sequence of PARP1 GST (P09874 whole entry): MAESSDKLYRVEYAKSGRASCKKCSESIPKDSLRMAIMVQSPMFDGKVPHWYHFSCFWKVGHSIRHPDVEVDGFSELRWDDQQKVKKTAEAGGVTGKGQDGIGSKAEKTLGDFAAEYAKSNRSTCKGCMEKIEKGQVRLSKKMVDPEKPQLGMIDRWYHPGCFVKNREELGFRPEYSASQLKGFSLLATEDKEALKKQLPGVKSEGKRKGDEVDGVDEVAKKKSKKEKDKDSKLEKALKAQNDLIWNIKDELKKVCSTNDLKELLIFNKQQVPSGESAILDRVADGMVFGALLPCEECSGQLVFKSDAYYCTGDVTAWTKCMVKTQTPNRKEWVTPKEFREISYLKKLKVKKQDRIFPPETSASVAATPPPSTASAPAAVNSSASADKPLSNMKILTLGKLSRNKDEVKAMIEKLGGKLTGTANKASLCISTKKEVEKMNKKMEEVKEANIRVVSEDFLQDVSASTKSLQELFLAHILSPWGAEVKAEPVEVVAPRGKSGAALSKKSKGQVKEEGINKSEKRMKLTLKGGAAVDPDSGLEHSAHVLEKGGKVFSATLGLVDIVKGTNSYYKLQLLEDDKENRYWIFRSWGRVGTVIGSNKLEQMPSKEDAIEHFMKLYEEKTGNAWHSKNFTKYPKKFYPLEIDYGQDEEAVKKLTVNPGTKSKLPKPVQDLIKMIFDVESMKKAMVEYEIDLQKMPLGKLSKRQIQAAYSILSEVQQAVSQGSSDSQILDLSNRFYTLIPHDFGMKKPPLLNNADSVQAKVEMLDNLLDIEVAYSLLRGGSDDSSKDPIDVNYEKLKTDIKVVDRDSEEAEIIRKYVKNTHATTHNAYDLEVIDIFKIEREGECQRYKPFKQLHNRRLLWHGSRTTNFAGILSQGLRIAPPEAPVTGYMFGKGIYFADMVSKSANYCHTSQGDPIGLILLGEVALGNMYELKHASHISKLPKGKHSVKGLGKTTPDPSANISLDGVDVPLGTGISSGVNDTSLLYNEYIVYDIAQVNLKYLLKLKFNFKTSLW
Sequence of TIPARP GST-(TEV) (Q7Z3E1 441-657): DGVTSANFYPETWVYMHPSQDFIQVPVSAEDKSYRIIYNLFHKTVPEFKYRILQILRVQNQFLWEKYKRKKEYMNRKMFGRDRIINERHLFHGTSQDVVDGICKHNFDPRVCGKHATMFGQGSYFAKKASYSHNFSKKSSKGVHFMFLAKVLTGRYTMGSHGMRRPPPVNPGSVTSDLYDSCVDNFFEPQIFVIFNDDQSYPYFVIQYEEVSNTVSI

SMILES	IC50 (TIPARP GST-(TEV))	PARP1/TIPARP IC50 Ratio (TIPARP GST-(TEV))	IC50 (PARP1 GST)	EC50 (NCI-H1373 cells; Homo sapiens, NCI-H1373, 144 h)	EC50 (DLD-1 parent cells; Homo sapiens, 144 h)	EC50 (DLD-1 BRCA2 (−/−) cells; Homo sapiens, 144 h)	EC50 (NCI-H1373 cells)	EC50 (DLD-1 parent cells)	EC50 (DLD-1 BRCA2 (−/−) cells)
C[C@@H]1CN(c2ncc(C(F)(F)F)cn2)C[C@H](C)N1C(=O)[C@H]1C[C@@H](c2c[nH]c(=O)c(C(F)(F)F)c2)C1 [Example 2, 5-[(1s,3s)-3-{(2R,6S)-2,6-dimethyl-4-[5-(trifluoromethyl)pyrimidin-2-yl]piperazine-1-carbonyl}cyclobutyl]-3-(trifluoromethyl)pyridin-2(1H)-one]	0.00375 µM	1340	5.02 µM	0.0322 µM	22.1 µM	16.5 µM	–	–	–
C[C@@H]1CN(C(=O)[C@H]2C[C@@H](Cc3c[nH]c(=O)c(C(F)(F)F)c3)C2)CCN1c1ncc(C(C)(C)O)cn1 [Example 18, 5-{[(1S,3s)-3-{(3R)-4-[5-(2-hydroxypropan-2-yl)pyrimidin-2-yl]-3-methylpiperazine-1-carbonyl}cyclobutyl]methyl}-3-(trifluoromethyl)pyridin-2(1H)-one]	0.00586 µM	149	0.871 µM	0.0667 µM	12 µM	1.05 µM	–	–	–
C[C@@H]1CN(C(=O)[C@H]2C[C@@H](c3c[nH]c(=O)c(C(F)(F)F)c3)C2)C[C@H](C)N1c1ncc(C(C)(C)O)cn1 [Example 5, 5-[(1s,3s)-3-{(3R,5S)-4-[5-(2-hydroxypropan-2-yl)pyrimidin-2-yl]-3,5-dimethylpiperazine-1-carbonyl}cyclobutyl]-3-(trifluoromethyl)pyridin-2(1H)-one]	0.0023 µM	974	2.24 µM	0.0344 µM	> 30 µM	20.5 µM	–	–	–
C[C@H]1CN(C(=O)[C@H]2C[C@@H](c3c[nH]c(=O)c(C(F)(F)F)c3)C2)CCN1c1ncc(C(F)(F)F)cn1 [Example 8, 5-[(1R,3s)-3-{(3S)-3-methyl-4-[5-(trifluoromethyl)pyrimidin-2-yl]piperazine-1-carbonyl}cyclobutyl]-3-(trifluoromethyl)pyridin-2(1H)-one]	0.00879 µM	137	1.2 µM	0.0559 µM	> 30 µM	5.73 µM	–	–	–
CC(C)(O)c1cnc(N2CCN(C(=O)[C@H]3C[C@@H](Cc4c[nH]c(=O)c(C(F)(F)F)c4)C3)CC2)nc1 [Example 27, 5-{[(1s,3s)-3-{4-[5-(2-hydroxypropan-2-yl)pyrimidin-2-yl]piperazine-1-carbonyl}cyclobutyl]methyl}-3-(trifluoromethyl)pyridin-2(1H)-one]	0.00234 µM	98.7	0.231 µM	–	–	–	0.0387 µM	> 30 µM	0.894 µM
C[C@H]1CN(C(=O)[C@H]2C[C@@H](c3c[nH]c(=O)c(C(F)(F)F)c3)C2)CCN1c1ncc(C(C)(C)O)cn1 [Example 10, 5-[(1R,3s)-3-{(3S)-4-[5-(2-hydroxypropan-2-yl)pyrimidin-2-yl]-3-methylpiperazine-1-carbonyl}cyclobutyl]-3-(trifluoromethyl)pyridin-2(1H)-one]	0.0101 µM	305	3.08 µM	0.284 µM	> 30 µM	> 30 µM	–	–	–
C[C@@H]1CN(C(=O)[C@H]2C[C@H](c3c[nH]c(=O)c(C(F)(F)F)c3)C2)C[C@H](C)N1c1ncc(C(F)(F)F)cn1 [Example 24, 5-[(1r,3r)-3-{(3R,5S)-3,5-dimethyl-4-[5-(trifluoromethyl)pyrimidin-2-yl]piperazine-1-carbonyl}cyclobutyl]-3-(trifluoromethyl)pyridin-2(1H)-one]	1.87 µM	1.65	3.08 µM	–	–	–	6.49 µM	> 30 µM	23.4 µM
